Test results: patent US9428452B2, “Compounds” (Glaxo Group Limited, priority 2012, dated 2016)

Target: T1, Human RORγ Ligand Binding Domain (RORγ-LBD) (Homo sapiens, UniProt P51449)
T1 construct: His6 with thrombin site) (N); made in house; host or cells: E. coli BL21(DE3), modified pET21a vector
T1 sequence (P51449 263-518): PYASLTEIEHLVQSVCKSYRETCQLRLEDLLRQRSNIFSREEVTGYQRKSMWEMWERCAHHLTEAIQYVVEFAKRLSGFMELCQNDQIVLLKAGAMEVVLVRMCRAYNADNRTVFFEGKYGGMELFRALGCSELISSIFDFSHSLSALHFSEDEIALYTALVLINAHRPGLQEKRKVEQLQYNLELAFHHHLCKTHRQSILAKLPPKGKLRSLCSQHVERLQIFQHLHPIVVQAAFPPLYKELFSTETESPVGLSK
Assay: Dual Fluorescence Energy Transfer (FRET) assay: co-activator SRC1(2) peptide interaction with RORγ-LBD
Format: biochemical
Conditions: RORγ-LBD / SRC1(2) peptide, read-out: mean pIC50 (converted)

IC50: 63.1 nM
Structure (SMILES): CCc1ccc(N(CC(C)C)S(=O)(=O)c2ccc([C@@H](O)CN3CCOCC3)c(CO)c2)cc1 [Example E126, N-(4-ethylphenyl)-4-(1-hydroxy-2-morpholinoethyl)-3-(hydroxymethyl)-N-isobutylbenzenesulfonamide]
